US12414960B2, “Analogues of oleuropein and oleacein and uses thereof” (Attica Sciences Ltd., priority 2020, dated 2025)

Columns and labels:
[1] = system: Raw 264.7 cells; assay: Raw 264.7 macrophage cell growth (trypan blue count); assay type: cell-based, BALB/C mice; conditions: 1, 10, 25, 50, 100, 200 μM, 24 h
Method: The effect of GS27 on the growth of Raw 264.7 cells was evaluated to examine GS27 potential toxicity effects. RAW 264.7 cells are macrophage-like Abelson leukemia virus transformed cell line derived from BALB/C mice. The cell line was obtained from ATCC.
RAW 264.7 cells were maintained at 37° C., in a 5% CO2 and 100% humidity incubator and grown in suspension, in non-adherent flasks, in RPMI 1640-Glutamax to which was added 50 U/mL of penicillin, 50 μg/mL streptomycin and 10% (v/v) fetal bovine serum (FBS). These cells were exposed to increasing doses of GS27 (1, 10, 25, 50, 100, 200 μM) for 24 h and after the exposure period, the cells were harvested with trypsin-EDTA and trypan blue was applied to the cell suspension. Non-colored and blue cells were counted while using an automated cell counter.

[2] = system: MCF-10A non-tumorigenic mammary epithelial cells; assay: Cell Glo luminescence cell growth assay, MCF-10A normal cells; assay type: cell-based, human; conditions: 10 μM, forty-eight hours post-treatment
Source text: The CellTiter-Glo® Luminescent Cell Viability Assay (Promega Corporation; Madison, WI) is a homogeneous method of determining the number of viable cells in culture based on quantitation of the ATP present, an indicator of metabolically active cells. The homogeneous assay procedure involves adding the single reagent (CellTiter-Glo® Reagent) directly to cells cultured in serum-supplemented medium. The homogeneous “add-mix-measure” format results in cell lysis and generation of a luminescent signal proportional to the amount of ATP present. The amount of ATP is directly proportional to the number of cells present in culture.
Cancer cells (3,000 cells/well) were harvested in a 96-well plate. Then, the cancer cells were treated with GS compounds and incubated for 24 hours. The MT Cell Viability Substrate, NanoLuc® Enzyme and cell culture medium was equilibrated to 37° C. The 2× RealTime-Glo™ reagent was prepared by diluting the MT Cell Viability Substrate and NanoLuc® Enzyme in 37° C. cell culture medium to a 2× concentration for each reagent. […] The cells were kept for ˜20 minutes in the cell culture incubator and then luminescence was measured by using a plate-reading luminometer. […]
The effects of exemplary compounds on cancer cell lines and one non-tumorigenic cell line (control) were investigated using a high throughput screening assay. More specifically, the effects of the GS compounds on cell growth was evaluated by the XTT assay for cell lines HepG2, HeLa, MCF7 ER+, MDA-MB-231, and MKN-45, and by the Cell Glo luminescence assay for cell lines MIA PaCa-2, HCT-116, MCF-10A, and PANC-1. […]
The effect of GS27 on normal cell growth was evaluated using the MCF-10A cell line. […]
GS27, NDI-091143 and Nexletol (10 μM) were used to treat normal epithelial cells MCF-10A cells. […] Forty-eight hours post-treatment, the growth of MCF-10A cells was evaluated by CellTiter-Glo® Luminescent Cell Viability Assay, as discussed in Example 29.

[3] = system: pAKT (S473); assay: ELISA of pAKT (S473) in PANC-1 cells; assay type: cell-based, human; conditions: rIGF1, 5 μM, 24 hours
Method: (§1) ELISA assay was used to evaluate the effect of GS compounds on protein activity levels in PANC-1 cancer cells. PANC-1 cells were serum-starved overnight and then treated with rIGF1 (100 ng/mL) for 24 hours, with or without GS27 (5 μM). The levels of the following proteins were evaluated by ELISA assay: a) p70 S6 (T389) (cat no. 54164C, Cell Signaling); b) pAKT (S473), (cat no. 80895, Cell Signaling); c) pACLY (S455), (cat no. okag1672, Avivasysbio); d) pAMPK (T172) (cat no. 7959C, Cell Signaling) and e) p65/NFKB (S536), (cat no. 7173, Cell Signaling).
(§2) PANC-1 is a human pancreatic ductal adenocarcinoma cell line derived from the carcinoma of a person.
(§3) The molecular mechanism of action of GS27, a compound that has exerted potent anti-cancer activity in different cancer cell lines including pancreatic cancer cells, was investigated. Oleacein has been implicated to have anti-inflammatory and metabolic effects, thus the potential effects of GS27 in different metabolic and inflammatory pathways were evaluated. Specifically, the protein levels of p70 S6 (T389), pAKT (S473), pACLY (S455), pAMPK (T172) and p65/NFKB (S536) were evaluated by ELISA assay in PANC-1 pancreatic cancer cells treated with 5 μM GS27. GS27 reduced p70 S6 and AKT phosphorylation levels, while it increased AMPK phosphorylation.

[4] = system: pAMPK (T172); assay: ELISA of pAMPK (T172) in PANC-1 cells; assay type: cell-based, human; conditions: rIGF1, 5 μM, 24 hours
Method: as §1, §2, §3

[5] = system: p70 S6 (T389); assay: ELISA of p70 S6 (T389) in PANC-1 cells; assay type: cell-based, human; conditions: rIGF1, 5 μM, 24 hours
Method: as §1, §2, §3

[6] = system: LNCaP prostate cancer cells; conditions: literature; cited from earlier work
[7] = system: TNF-α; assay: ELISA of TNF-α in PMA/LPS-treated THP-1 cells; assay type: cell-based, human; conditions: THP-1, PMA then LPS 100 ng/ml 24 hours, 5 uM compound added 2 hours before LPS
Method: (§4) Human monocytes (THP-1, ATCC) were cultured in RPMI 1640 media supplemented with HEPES buffer (10 mM), sodium pyruvate (1 mM), glucose (4.5 g/L), fetal bovine serum (10%), penicillin (100 U/mL), streptomycin (100 μg/mL), and 2-mercaptoethanol (0.05 mM). THP-1 cells were treated with PMA (100 ng/ml) for 48 hours and then washed and rested for 24 hours in PMA-free media. These cells were treated with LPS (100 ng/ml) for 24 hours in the presence or absence of 5 uM of […] compounds (added 2 hours before LPS). Cell culture supernatants were collected and IL-1β (cat. No DLB50, R&D Systems), TNF-α (cat. no. DTA00D, R&D Systems) and IL-6 (cat. No D6050, R&D Systems) protein levels were evaluated by ELISA assay.

[8] = system: IL-1β; assay: ELISA of IL-1β in PMA/LPS-treated THP-1 cells; assay type: cell-based, human; conditions: THP-1, PMA then LPS 100 ng/ml 24 hours, 5 uM compound added 2 hours before LPS
Method: as §4

## C/C=C(/C=O)[C@@H](CC=O)CC(=O)SCCc1ccccc1 [GS27, S-phenethyl (3S,4E)-4-formyl-3-(2-oxoethyl)hex-4-enethioate]
[1]
  effect on Raw 264.7 cell growth: no effect
[2]
  effect on MCF-10A normal cell growth: did not have any effect
[3]
  AKT phosphorylation levels: reduced
[4]
  AMPK phosphorylation: increased
[5]
  p70 S6 phosphorylation levels: reduced

## C/C=C(/C=O)[C@@H](CC=O)CC(=O)OCCc1ccc(O)cc1 [GS19, (3S,4E)-4-formyl-3-(2-oxoethyl)-4-hexenoic acid 2-(4-hydroxyphenyl)ethyl ester, reference compound]
[6]
  concentration found to reduce LNCaP prostate cancer cell growth: 500 µM

## C/C=C(/C=O)[C@@H](CC=O)CC(=O)OCCOc1ccccc1 [GS24, (3S,4E)-4-formyl-3-(2-oxoethyl)-4-hexenoic acid 2-phenoxyethyl ester]
[7]
  TNF-α protein levels: reducing substantially
[8]
  IL-1β protein levels: more effectively reduced
